Test results published in patent US20240352414A1, “THREE-DIMENSIONAL DIRECT NEURONAL REPROGRAMMING TO MODEL ALZHEIMER'S DISEASE IN HUMAN NEURONS” (Washington University, priority 2023, published 2024).

Tests used:
Assay type in all cases: cell-based, human
ADAD 3D-CNs = experiment: p-tau (AT8) and K63-ubiquitin/p-tau (PHF1) immunostaining in ADAD 3D-CNs; details: ADAD 3D-CNs treated with β-secretase inhibitor IV or DAPT
Experimental: (§1) β-secretase inhibitor IV (cat #565788), DAPT (cat #D5942), and lamivudine (3TC) (cat #PHR1365) were purchased from Millipore Sigma. To make the stock solution, 5 mM β-secretase inhibitor IV and 40 mM DAPT were dissolved in DMSO and 100 mM 3TC was dissolved in sterile water. For thin gel culture, 2.5 μM β-secretase inhibitor IV, 20 μM DAPT, or 100 μM 3TC was added to the fresh media and used for half media changes starting at PID16 or PID22. For spheroids culture, 5 μM β-secretase inhibitor IV, 40 μM DAPT, or 100 μM 3TC was added to the fresh media and used for half media changes starting at PID16 or PID22.
Immunofluorescence staining of thin gel: The fixed thin gel cultures were permeabilized in PBST (0.2% (vol/vol) TritonX-100 in PBS) at room temperature for 1h and blocked with blocking buffer (5% (wt/vol) BSA, 2% (wt/vol) normal goat serum, and 0.2% (vol/vol) TritonX-100) overnight at 4° C. The blocking buffer was removed from thin gel culture plates and primary antibodies diluted in blocking buffer were added to the plate followed by incubation overnight at 4° C. with gentle rocking. After washing 5 times with PBST, the cells were then incubated with secondary antibodies diluted in blocking buffer at room temperature for 3-5 hours or 4° C. overnight. Cells were washed 5 times with PBST, incubated with DAPI (Sigma) for 20 min at room temperature if needed and sealed with a drop of anti-fade prolong gold reagent (Life technology). Plates were sealed with parafilm and stored at 4° C. before imaging. The immunofluorescence images were taken by Leica SP5X white light laser confocal system.
(§2) For quantification of the total volume of Aβ deposits, volume and area of the spheroid, co-localization analysis in tau related pathologies, and number of TUNEL positive cells or total cells, the “surface” module in Imaris was used for 3D reconstruction and quantification. For measuring the intensity of neurite outgrowth in spheroid, Image J was used by measuring the mean intensity at each region (distal, middle, and proximal).

ADAD spheroids [1] = experiment: Aβ deposition by whole mount immunostaining (6E10) in ADAD spheroids; details: ADAD spheroids treated from PID16 to 28; 5 μM β-secretase inhibitor IV or 40 μM DAPT; immunostained at PID28
Experimental: as §1
(§3) Whole mount immunofluorescence staining of spheroid: For whole-mount immunostaining of neuronal spheroid, 3D cell culture clearing kit (abcam: ab243299) was used with modifications. Briefly, fixed spheroids on transwell inserts were permeabilized by sequential dehydration and rehydration using different concentrations of ethanol. […]
(§4) For quantification of the total volume of Aβ deposits, volume and area of the spheroid, co-localization analysis in tau related pathologies, and number of TUNEL positive cells or total cells, the “surface” module in Imaris was used for 3D reconstruction and quantification. […]

LOAD spheroids = experiment: Aβ deposition by whole mount immunostaining (6E10) in LOAD spheroids; details: treatment started at PID22 (after onset of Aβ deposition), examined at PID28
Experimental: as §1, §3, §4

ADAD spheroids [2] = experiment: Cell death (TUNEL staining) in ADAD spheroids; details: ADAD spheroids at PID28, treatment starting at PID16
Experimental: as §1, §2
TUNEL assay: DeadEND Fluorometric TUNEL system kit was purchased from Promega (G3250) and TUNEL assay was performed according to the manufacturer's description. Briefly, the cryosections of neuronal spheroids were permeabilized by 0.2% TritonX-100 in PBS for 5 mins followed by two 5 mins washes in PBS. […]

Row | Molecule | K63-ubiquitin+p-tau (PHF1) level (ADAD 3D-CNs) | p-tau (AT8) level (ADAD 3D-CNs) | Aβ deposition (ADAD spheroids [1]) | effect on Aβ deposition (LOAD spheroids) | cell death / neuronal death (ADAD spheroids [2]) | reduction of Aβ deposition (LOAD spheroids)
1 | β-secretase inhibitor IV | significant reduction | significant reduction | reduction | non-significant effect | reduced | –
2 | C[C@H](NC(=O)Cc1cc(F)cc(F)c1)C(=O)N[C@H](C(=O)OC(C)(C)C)c1ccccc1 [DAPT] | significant reduction | significant reduction | reduction | – | reduced | ~30%
